In the supplement of paper PMC10307832:

Key:
Assay in all cases: relative viability (nuclei count vs DMSO), 5 days (fraction); higher = more cells survive
ABC-1 = test system: ABC-1
Outline: (§1)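 One day after seeding in 1536-well plates, lung cancer cell lines were dosed by pin tool. Dosing was either single-drug or a fixed anchor-drug dose plus five library-drug doses (not always all listed) in √10 steps. After 5 days, nuclei were stained in one fix-and-stain step and counted on 4× images, and relative viability is the nuclei count of treated wells over that of vehicle wells, given as the median of duplicate plates.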

EKVX = test system: EKVX
Outline: as §1

HCC-44 = test system: HCC-44
Outline: as §1

NCI-H1623 = test system: NCI-H1623
Outline: as §1

NCI-H1993 = test system: NCI-H1993
Outline: as §1

NCI-H2085 = test system: NCI-H2085
Outline: as §1

NCI-H2126 = test system: NCI-H2126
Outline: as §1

RERF-LC-KJ = test system: RERF-LC-KJ
Outline: as §1

| Compound | relative viability (ABC-1; first compound 0.01 µM) | relative viability (ABC-1; first compound 0.03162 µM) | relative viability (ABC-1; first compound 0.1 µM) | relative viability (ABC-1; first compound 0.3162 µM) | relative viability (ABC-1; first compound 1 µM) | relative viability (EKVX; first compound 0.01 µM) | relative viability (EKVX; first compound 0.03162 µM) | relative viability (EKVX; first compound 0.1 µM) | relative viability (EKVX; first compound 0.3162 µM) | relative viability (EKVX; first compound 1 µM) | relative viability (HCC-44; first compound 0.01 µM) | relative viability (HCC-44; first compound 0.03162 µM) | relative viability (HCC-44; first compound 0.1 µM) | relative viability (HCC-44; first compound 0.3162 µM) | relative viability (HCC-44; first compound 1 µM) | relative viability (NCI-H1623; first compound 0.01 µM) | relative viability (NCI-H1623; first compound 0.03162 µM) | relative viability (NCI-H1623; first compound 0.1 µM) | relative viability (NCI-H1623; first compound 0.3162 µM) | relative viability (NCI-H1623; first compound 1 µM) | relative viability (NCI-H1993; first compound 0.01 µM) | relative viability (NCI-H1993; first compound 0.03162 µM) | relative viability (NCI-H1993; first compound 0.1 µM) | relative viability (NCI-H1993; first compound 0.3162 µM) | relative viability (NCI-H1993; first compound 1 µM) | relative viability (NCI-H2085; first compound 0.01 µM) | relative viability (NCI-H2085; first compound 0.03162 µM) | relative viability (NCI-H2085; first compound 0.1 µM) | relative viability (NCI-H2085; first compound 0.3162 µM) | relative viability (NCI-H2085; first compound 1 µM) | relative viability (NCI-H2126; first compound 0.01 µM) | relative viability (NCI-H2126; first compound 0.03162 µM) | relative viability (NCI-H2126; first compound 0.1 µM) | relative viability (NCI-H2126; first compound 0.3162 µM) | relative viability (NCI-H2126; first compound 1 µM) | relative viability (RERF-LC-KJ; first compound 0.01 µM) | relative viability (RERF-LC-KJ; first compound 0.03162 µM) | relative viability (RERF-LC-KJ; first compound 0.1 µM) | relative viability (RERF-LC-KJ; first compound 0.3162 µM) | relative viability (RERF-LC-KJ; first compound 1 µM) |
| --- | --- | --- | --- | --- | --- | --- | --- | --- | --- | --- | --- | --- | --- | --- | --- | --- | --- | --- | --- | --- | --- | --- | --- | --- | --- | --- | --- | --- | --- | --- | --- | --- | --- | --- | --- | --- | --- | --- | --- | --- |
| O=c1cc(N2CCOCC2)oc2c(-c3cccc4c3sc3ccccc34)cccc12 + CCNC(=O)c1noc(-c2cc(C(C)C)c(O)cc2O)c1-c1ccc(CN2CCOCC2)cc1 [Luminespib] (partner 0.01 µM) | 0.458 | 0.452 | 0.796 | 0.501 | 0.53 | 0.9 | 0.872 | 0.878 | 0.917 | 0.891 | 1.02 | 1.01 | 1.31 | 0.998 | 1.11 | 0.383 | 0.521 | 0.495 | 0.475 | 0.409 | 0.585 | 0.891 | 0.984 | 0.697 | 0.813 | 0.407 | 0.427 | 0.534 | 0.49 | 0.48 | 0.923 | 0.893 | 0.922 | 0.93 | 0.756 | 1.31 | 1.22 | 1.48 | 1.07 | 1.21 |
| CCN(CC)CCCCNc1ncc2cc(-c3cc(OC)cc(OC)c3)c(NC(=O)NC(C)(C)C)nc2n1 + CCNC(=O)c1noc(-c2cc(C(C)C)c(O)cc2O)c1-c1ccc(CN2CCOCC2)cc1 [Luminespib] (partner 0.01 µM) | 0.731 | 0.405 | 0.832 | 0.416 | 0.693 | 0.842 | 0.909 | 0.934 | 0.971 | 0.83 | 1.07 | 1.06 | 0.801 | 1.06 | 0.866 | 0.605 | 0.54 | 0.443 | 0.607 | 0.722 | 0.401 | 0.715 | 0.771 | 0.97 | 0.666 | 0.419 | 0.424 | 0.402 | 0.405 | 0.458 | 0.985 | 0.876 | 0.953 | 0.92 | 0.898 | 1.24 | 1.21 | 1.84 | 1.35 | 1.27 |
